In patent US20100256385A1, “PROSTAGLANDIN E RECEPTOR ANTAGONISTS” (ALLERGAN, INC., priority 2009, published 2010):

How the values were obtained:
human osteoclasts = assay: Calcium Response in human osteoclasts; assay type: cell-based; conditions: for Calcium Response: agonist alone (FIG. 1, FIG. 2)

| SMILES | Calcium Response (human osteoclasts) | Block of the Calcium Response initiated by PGE2 (human osteoclasts; response initiated by PGE2 (FIG. 3)) | melting point [°C] |
| --- | --- | --- | --- |
| CCCCC[C@H](O)/C=C/[C@H]1[C@H](O)CC(=O)[C@@H]1C/C=C\CCCC(=O)O [PG-2] | does not cause a Calcium Response |  |  |
| O=C(CCc1ccc(F)cc1C[C@@H]1[C@H](c2nc(C(=O)NCCCCC3CCCCC3)co2)[C@H]2CC[C@H]1O2)NC(CO)CO [Example 1, N-(1,3-Dihydroxyprop-2-yl)-3-(2-{(1R,2R,3S,4R)-3-[4-(4-cyclohexyl-butylcarbamoyl)-oxazol-2-yl]-7-oxa-bicyclo[2.2.1]hept-2-ylmethyl}-4-fluoro-phenyl)-propionamide] |  | blocked | 165 to 166 |
| CCCCC[C@H](O)/C=C/[C@H]1[C@H](O)CC(=O)[C@@H]1C/C=C\CCCC(=O)OCC(O)CO (stereo partly shown) [PG-2 Glycerol Ester] | induces a Calcium Response |  |  |
